Experiment [1] concerns stage 1 NOS1::GFP enteric ganglioids. The experiment can be described thus: NO neuron induction in stage 1 enteric ganglioids measured by flow cytometry (NOS1::GFP). It is filed as cell-based, human. The conditions noted are these: for NO neuron induction / NO neuron proportions: RTK ligand treatment, stage 1 enteric ganglioids. From the text: (§1) To evaluate the potential of hPSC-derived cultures to model human ENS development, we set out to define the mechanism of NO neuron specification in vitro. Searching for pathways that regulate NO neuron differentiation, we performed a high-throughput small molecule screen. Identifying distinct pathways and chemical modulators that promote NO neuron induction could provide insights on NO neuron development and offer a strategy for the derivation of NO neuron enriched ENS cultures. • To identify compounds that induce NO neuron differentiation, we treated enteric crestospheres with 1694 compounds in the Selleck inhibitor library™ and identified 12 hit compounds that increased the proportion of NOS1^+ neurons by at least eight folds (FIG. 6A, FIGS. S25A and B). FIG. S25 data not shown, but it describes that small molecule high-throughput screening identifies compounds that enrich NO neurons in hESC-derived ENS cultures. […] After clustering the predicted protein targets, common patterns emerged for a subset of compounds.
To determine the mechanism by which PP121 induced NO neuron enrichment in ganglioids, we used a combination of pharmacological and genetic approaches. […] Our crestosphere snRNA-seq analysis confirmed the expression of PDGFRA, PDGFRB, ERBB2 and ERBB3 while the mRNA for VEGFRs were not detectable (FIG. 6L). We evaluated the induction efficiency of NO neurons in response to PDGF (PDGFR agonist), sunitinib (PDGFR and VEGFR antagonist), NRG1 (ERBBs agonist) and sapitinib (ERBBs antagonist) (FIG. 6M). […] To genetically confirm the role of PDGFR signaling in NO neuron induction, we used CRISPR-Cas9 to knock-out PDGFRA and PDGFRB in our enteric crestospheres and analyzed the percentage of NO neurons in stage 1 ganglioids. NO neurons were […] in both PDGFRA and PDGFRB knock-out cultures further confirming the PP121 mechanism of action (FIGS. 6O and P).
(In general: In flow cytometry, cells or beads pass a laser one at a time.)

For experiment [2], the system named is mouse colon. Briefly: Ex vivo colonic motility assay (organ bath, GIMM). The conditions noted are these: for CMMC intervals at the 75th percentile relative to the untreated condition: five consecutive 10-min acquisitions, mouse colon ex vivo.
The subject of experiment [3] is hESC-derived stage 2 enteric ganglioid NO neurons. The conditions noted are these: cFOS flow cytometry, cultures treated with epinephrine.
In experiment [4] the test system is enteric ganglioid neurons. The conditions noted are these: MEA neuronal firing measurements.
In experiment [5] the test system is VEGFRs. The note with it: cited from earlier work.
Experiment [6] has as its system H9 hESC-derived enteric crestospheres (NOS1+ neurons). The experiment can be described thus: High-throughput screening to identify compounds that enrich NO neurons. The note with it: 1694 compounds, 1 μM, D15-D20, NOS1 staining at day 40. Format: cell-based, human.
From the text: as §1
Day 15 H9 hESC-derived enteric crestospheres were dissociated into single cells (accutase, Stemcell Technologies, 07920, 30 min, 37° C.), resuspended in ENC medium and were transferred into 384-well plates. Plates were incubated for 2 hours for cells to attach. […]

In experiment [7] the test system is stage 1 enteric ganglioids. Briefly: PP121 vs control gene expression correlation (snRNA-seq). Format: cell-based, human. The text has this: To compare PP121 treated and untreated stage 1 enteric ganglioids in single cell resolution, we performed snRNA-seq and combined both datasets. […] FIG. S26 data not shown, but it describes PP121 treatment enriches NO neurons without affecting their overall cellular diversity.
To compare the gene expression of control and PP121 treated cell types, neuronal subtypes and NO neuron subtypes, a subset dataset of each cell type and subtype annotation was first created. For each subset, the non-imputed average expression of all genes was then calculated for the control and PP121 treated cells using the “AverageExpression” function and natural log transformed for plotting. R^2 values comparing the control and PP121 natural log expression values were calculated from linear modeling using the “y ˜x” formula. cFOS expression screening

Experiment [8] deals with PDGFRs. The note with it: cited from earlier work.
In experiment [9] the test system is EGFRs. The note with it: cited from earlier work.
Setting [10] is: 6-min treatment, all five replicates.

Data on eight molecules can be found in patent US20250099508A1, “SYSTEMS, CELL LINES AND METHODS OF PRODUCING AND USING THE SAME” (THE REGENTS OF THE UNIVERSITY OF CALIFORNIA, priority 2022, published 2025).

Regarding `CNC(=O)CN1CCC(Oc2cc3c(Nc4cccc(Cl)c4F)ncnc3cc2OC)CC1` [sapitinib], in experiment [1], the “NO neuron induction / NO neuron proportions” value is on record as “no significant effect”.

As to PDGF, the “NO neuron induction / NO neuron proportions” value in [1] is given as “lower”.

For `Cc1cccc(C#Cc2ccccc2)n1` [MPEP], the “CMMC intervals at the 75th percentile relative to the untreated condition” value in experiment [2] is on record as “promising effects on lowering CMMC intervals”.

In the case of `CNC[C@H](O)c1ccc(O)c(O)c1` [Epinephrine, epinephrine], the “neuronal cFOS expression” value in experiment [3] is reported as “induced neuronal cFOS expression”. The “electrical firing of ganglioid neurons” value in experiment [4] is reported as “increased electrical firing”.

For `O=C1CCC[C@@H]2[C@H]3CCCN4CCC[C@@H](CN12)[C@@H]34` [matrine], in [2], the “CMMC intervals at the 75th percentile relative to the untreated condition” value was “promising effects on lowering CMMC intervals”.

For the molecule `Cc1cccc([C@H](C)c2cnc[nH]2)c1C` [dexmedetomidine], in experiment [2] (setting [10]), the “average duration of LCEs” value is given as “increasing trend in their average duration” and the “total number of longitudinal contractile events (LCEs)” value is “decrease in the total number of LCEs”. In addition, in experiment [2] (Krebs wash after drug), the “effects on LCEs after the drug removal” value was “reversed after the drug removal”. In experiment [2] (L-NAME co-treatment), the “effects on LCEs with L-NAME co-treatment” value is recorded as “blocked by L-NAME co-treatment”. Also, the “effect on CMMC intervals with simultaneous L-NAME” value in experiment [2] (dexmedetomidine+L-NAME simultaneously) is reported as “absent”. Further, the “CMMC intervals at the 75th percentile relative to the untreated condition” value in experiment [2] is “promising effects on lowering CMMC intervals”. The CMMC intervals result in experiment [2] (sequential 6-min acquisitions, five sample pairs, drug alone) was “decreased CMMC intervals in four out of five colon samples”. Besides, the “slow waves (SW)” value in experiment [2] (sequential drug treatment) is “not affected”.

Regarding `Nc1ncnc2c1c(-c1cnc3[nH]ccc3c1)nn2C1CCCC1` [PP121], the “inhibitory activity on VEGFRs” value in experiment [5] was “known inhibitory activity”. The “increase of the proportion of NOS1+ neurons relative to vehicle (DMSO)” value in [6] is reported as “highest % NOS1^+ fold increase in this subset of compounds”. In addition, the “NOS1::GFP induction efficiency by treatment window” value in [1] (five-day treatment at various time points, GFP signal in stage 1 ganglioids) is given as “highest induction efficiency for cells treated during day 15-20”. In addition, the “NO neuron induction efficiency, dose dependence” value in [1] (flow cytometry) is recorded as “dose-dependent effect”. Moreover, the “abundance of neuronal subtypes” value in experiment [7] (merged control and PP121 treated neurons, snRNA-seq) is “enriched cultures for neuronal subtypes EN D and H”. The “abundance of nitrergic neuron subtypes” value in experiment [7] (merged control and PP121 treated nitrergic neurons) was “enrichment for Nitrergic B”. Moreover, in experiment [8], the “inhibitory activity on PDGFRs” value is “known inhibitory activity”. The “inhibitory activity on EGFRs” value in experiment [9] is on record as “known inhibitory activity”.

With `O=C1CCc2ccc(OCCCCN3CCN(c4cccc(Cl)c4Cl)CC3)cc2N1` [aripiprazole], the “CMMC intervals at the 75th percentile relative to the untreated condition” value in experiment [2] is recorded as “promising effects on lowering CMMC intervals”.
